≈ marks a conversion by molar mass, not a printed value.
How the values were obtained:
[1] = system: Candida albicans; assay: Antimicrobial activity against Candida albicans MTCC 227 assessed as growth inhibition by broth microdilution method; assay type: functional
[2] = system: Bacillus subtilis; assay: Antimicrobial activity against Bacillus subtilis MTCC 441 assessed as growth inhibition by broth microdilution method; assay type: functional
[3] = system: Mycobacterium tuberculosis; assay: Antitubercular activity against Mycobacterium tuberculosis H37Rv MTCC 200 assessed as growth inhibition at 6.25 ug/ml by BACTEC MGIT method; assay type: functional
[4] = system: Mycobacterium tuberculosis; assay: Antitubercular activity against Mycobacterium tuberculosis H37Rv MTCC 200 assessed as growth inhibition at MIC by L.J. MIC method; assay type: functional
[5] = system: Klebsiella pneumoniae; assay: Antimicrobial activity against Klebsiella pneumoniae MTCC 109 assessed as growth inhibition by broth microdilution method; assay type: functional
[6] = system: Plasmodium falciparum; assay: Antimalarial activity against chloroquine-sensitive Plasmodium falciparum 3D7 assessed as inhibition of complete maturation into schizonts after 40 hr; assay type: functional; conditions: 3D7, 40 h
[7] = system: Streptococcus pyogenes; assay: Antimicrobial activity against Streptococcus pyogenes MTCC 442 assessed as growth inhibition by broth microdilution method; assay type: functional
[8] = system: Mycobacterium tuberculosis; assay: Antitubercular activity against Mycobacterium tuberculosis H37Rv MTCC 200 assessed as growth inhibition by BACTEC MGIT method; assay type: functional
[9] = system: Escherichia coli; assay: Antimicrobial activity against Escherichia coli MTCC 443 assessed as growth inhibition by broth microdilution method; assay type: functional
[10] = system: Pseudomonas aeruginosa; assay: Antimicrobial activity against Pseudomonas aeruginosa MTCC 1688 assessed as growth inhibition by broth microdilution method; assay type: functional
[11] = system: Staphylococcus aureus; assay: Antimicrobial activity against Staphylococcus aureus MTCC 96 assessed as growth inhibition by broth microdilution method; assay type: functional
[12] = system: Aspergillus clavatus; assay: Antimicrobial activity against Aspergillus clavatus MTCC 1323 assessed as growth inhibition by broth microdilution method; assay type: functional
[13] = system: Vero; assay: Cytotoxicity against Chlorocebus aethiops (African green monkey) Vero cells assessed as inhibition of cell viability at equal to and greater than MIC for Mycobacterium tuberculosis H37Rv after 72 hr by MTT assay; assay type: cell-based; conditions: chlorocebus sabaeus
[14] = system: Aspergillus niger; assay: Antimicrobial activity against Aspergillus niger MTCC 282 assessed as growth inhibition by broth microdilution method; assay type: functional
[15] = system: Mycobacterium tuberculosis; assay: Antitubercular activity against Mycobacterium tuberculosis H37Rv MTCC 200 assessed as growth inhibition by L.J. MIC method; assay type: functional

Molecule	MIC99 [1] [µg/mL]	MIC99 [2] [µg/mL]	inhibition at 6.25 µg/mL [3] [%]	inhibition (Growth inhibition) [4] [%]	MIC99 [5] [µg/mL]	MIC [6] [µg/mL]	MIC99 [7] [µg/mL]	MIC [8] [µg/mL]	MIC99 [9] [µg/mL]	MIC99 [10] [µg/mL]	MIC99 [11] [µg/mL]	MIC99 [12] [µg/mL]	Activity [13]	MIC99 [14] [µg/mL]	MIC [15] [µg/mL]
S=C(SSC(=S)N1CCN(c2ccc(Cl)c(Cl)c2)CC1)N1CCN(c2ccc(Cl)c(Cl)c2)CC1	200	100	99	98	62.5	0.25 (≈ 0.408 µM)	62.5	6.25 (≈ 10.2 µM)	100	100	200	100	Non-toxic	100	6.25 (≈ 10.2 µM)
CC1(C)S[C@@H]2[C@H](NC(=O)[C@H](N)c3ccccc3)C(=O)N2[C@H]1C(=O)O [AMPICILLIN]		100			100		100		100	100	250				
O=C1C(=O)N(CCCSC(=S)N2CCN(c3ccc(Cl)c(Cl)c3)CC2)c2ccc(F)cc21	500	500	99	98	100	0.092 (≈ 0.18 µM)	250	6.25 (≈ 12.2 µM)	250	250	500	250	Non-toxic	200	6.25 (≈ 12.2 µM)
O=C1C(=O)N(CCSC(=S)N2CCN(c3ccc(Cl)c(Cl)c3)CC2)c2ccc(Cl)cc21	> 1000	100	98	96	250	0.061 (≈ 0.118 µM)	250	> 6.25	500	250	500	500	Non-toxic	> 1000	100 (≈ 194 µM)
O=C1C(=O)N(CCCSC(=S)N2CCN(c3ccc(Cl)c(Cl)c3)CC2)c2ccccc21	> 1000	100	96	97	500	0.089 (≈ 0.18 µM)	500	> 6.25	500	200	500	> 1000	Non-toxic	500	200 (≈ 404 µM)
O=C1C(=O)N(CCCSC(=S)N2CCN(c3ccc(Cl)c(Cl)c3)CC2)c2ccc([N+](=O)[O-])cc21	500	250	99	96	100	0.5 (≈ 0.927 µM)	250	6.25 (≈ 11.6 µM)	100	200	500	200	Non-toxic	250	100 (≈ 185 µM)
CC[C@@H](CO)NCCN[C@@H](CC)CO [ETHAMBUTOL]			99					3.12 (≈ 15.3 µM)							
O=C1C(=O)N(CCSC(=S)N2CCN(c3ccc(Cl)c(Cl)c3)CC2)c2ccccc21	> 1000	200	92	87	500	0.25 (≈ 0.52 µM)	100	> 6.25	500	100	250	500	Non-toxic	500	250 (≈ 520 µM)
O=C1C(=O)N(CCSC(=S)N2CCN(c3ccc(Cl)c(Cl)c3)CC2)c2ccc([N+](=O)[O-])cc21	100	100	99	99	100	0.072 (≈ 0.137 µM)	100	6.25 (≈ 11.9 µM)	100	62.5	62.5	100	Non-toxic	100	6.25 (≈ 11.9 µM)
NNC(=O)c1ccncc1 [ISONIAZID]								0.2 (≈ 1.46 µM)							
O=C1C(=O)N(CCSC(=S)N2CCN(c3ccc(Cl)c(Cl)c3)CC2)c2ccc(F)cc21	100	200	99	99	62.5	0.043 (≈ 0.0863 µM)	62.5	6.25 (≈ 12.5 µM)	62.5	100	100	100	Non-toxic	100	3.1 (≈ 6.22 µM)
COC1=CC(=O)C[C@@H](C)[C@]12Oc1c(Cl)c(OC)cc(OC)c1C2=O [GRISEOFULVIN]	500											100		100	
NC(=O)c1cnccn1 [PYRAZINAMIDE]			99					6.25 (≈ 50.8 µM)							
NYSTATIN	100											100		100	
O=C1C(=O)N(CCCSC(=S)N2CCN(c3ccc(Cl)c(Cl)c3)CC2)c2ccc(Br)cc21	250	250	99	94	250	0.25 (≈ 0.436 µM)	100	6.25 (≈ 10.9 µM)	200	100	200	500	Non-toxic	100	100 (≈ 174 µM)
CCn1cc(C(=O)O)c(=O)c2cc(F)c(N3CCNCC3)cc21 [NORFLOXACIN]		≤ 10			≤ 10		≤ 10		≤ 10	≤ 10	≤ 10				
O=C1C(=O)N(CCCSC(=S)N2CCN(c3ccc(Cl)c(Cl)c3)CC2)c2ccc(Cl)cc21	500	500	91	92	500	0.2 (≈ 0.378 µM)	500	> 6.25	200	250	500	> 1000	Non-toxic	> 1000	250 (≈ 473 µM)
O=C1C(=O)N(CCSC(=S)N2CCN(c3ccc(Cl)c(Cl)c3)CC2)c2ccc(Br)cc21	200	250	99	99	250	0.052 (≈ 0.093 µM)	62.5	6.25 (≈ 11.2 µM)	100	62.5	250	500	Non-toxic	200	6.15 (≈ 11 µM)
O=C(O)c1cn(C2CC2)c2cc(N3CCNCC3)c(F)cc2c1=O [CIPROFLOXACIN]		≤ 50			≤ 25		≤ 50		≤ 25	≤ 25	≤ 25				
CCN(CC)CCCC(C)Nc1ccnc2cc(Cl)ccc12 (configuration not stated) [CHLOROQUINE]						0.125 (≈ 0.391 µM)									
CO[C@H]1/C=C/O[C@@]2(C)Oc3c(C)c(O)c4c(O)c(c(/C=N/N5CCN(C)CC5)c(O)c4c3C2=O)NC(=O)/C(C)=C\C=C\[C@H](C)[C@H](O)[C@@H](C)[C@@H](O)[C@@H](C)[C@H](OC(C)=O)[C@@H]1C [RIFAMPIN]			99					0.25 (≈ 0.304 µM)							

Reference: ChEMBL document CHEMBL3044829, “New carbodithioate derivatives: synthesis, characterization, and in vitro antibacterial, antifungal, antitubercular, and antimalarial activity” (Med Chem Res, 2013)
